Experimental findings from BindingDB's records for doi:10.1021/jm010801s (2002) are described below.

The term IC50 denotes the concentration at which inhibition is half-maximal.

The target of the test is Cathepsin K (Oryctolagus cuniculus) (UniProt P43236). Briefly: Inhibition of recombinant rabbit Cathepsin K in a fluorescence assay.
Sequence of Cathepsin K (Oryctolagus cuniculus) (P43236 whole entry, looked up): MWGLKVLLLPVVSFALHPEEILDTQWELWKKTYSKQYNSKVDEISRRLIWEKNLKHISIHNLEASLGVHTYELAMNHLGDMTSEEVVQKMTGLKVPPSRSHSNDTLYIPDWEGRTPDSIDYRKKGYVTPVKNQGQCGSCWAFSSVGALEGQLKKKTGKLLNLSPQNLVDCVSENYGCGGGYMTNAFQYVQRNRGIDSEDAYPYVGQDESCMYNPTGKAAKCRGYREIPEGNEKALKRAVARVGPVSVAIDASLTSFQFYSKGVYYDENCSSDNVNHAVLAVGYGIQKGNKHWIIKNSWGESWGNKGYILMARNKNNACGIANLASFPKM

Turning to `Cc1cccc(NCCNC(=O)[C@H](CC(C)C)NC(=O)OCc2ccccc2)c1` [[3-Methyl-1-(2-m-tolylamino-ethylcarbamoyl)-butyl]-carbamic acid benzyl ester], the IC50 came to 460 nM.
With `Cc1ccc(NCCNC(=O)[C@H](CC(C)C)NC(=O)OCc2ccccc2)cc1` [[3-Methyl-1-(2-p-tolylamino-ethylcarbamoyl)-butyl]-carbamic acid benzyl ester] the figure was 190 nM.
With `CC(C)C[C@H](NC(=O)OCc1ccccc1)C(=O)NCCNc1ccccc1` [[3-Methyl-1-(2-phenylamino-ethylcarbamoyl)-butyl]-carbamic acid benzyl ester] the figure was 470 nM; with `CC(C)C[C@H](NC(=O)OCc1ccccc1)C(=O)NCCNc1cccc(Cl)c1` [{1-[2-(3-Chloro-phenylamino)-ethylcarbamoyl]-3-methyl-butyl}-carbamic acid benzyl ester], greater than 1000 nM.
Regarding `COc1cccc(NCCNC(=O)[C@H](CC(C)C)NC(=O)OCc2ccccc2)c1` [{1-[2-(3-Methoxy-phenylamino)-ethylcarbamoyl]-3-methyl-butyl}-carbamic acid benzyl ester], the IC50 was greater than 1000 nM.
`CC(C)C[C@H](NC(=O)OCc1ccccc1)C(=O)NCCNc1ccc(Cl)cc1` [{1-[2-(4-Chloro-phenylamino)-ethylcarbamoyl]-3-methyl-butyl}-carbamic acid benzyl ester]: the IC50 was 350 nM.
